The source made the active and inactive calls. The rule behind the calls is not given here.
Key:
Saccharomyces cerevisiae [1] = experiment: Antimicrobial activity against Saccharomyces cerevisiae GT160-45C at 100 ug after 24 hrs; assay type: functional; conditions: read-out: IZ
Saccharomyces cerevisiae [2] = experiment: Antimicrobial activity against Saccharomyces cerevisiae cdc5 mutant at 50 ug after 24 hrs; assay type: functional; conditions: read-out: IZ
Saccharomyces cerevisiae [3] = experiment: Antimicrobial activity against Saccharomyces cerevisiae act1-1 mutant at 50 ug after 24 hrs; assay type: functional; conditions: read-out: IZ
Saccharomyces cerevisiae [4] = experiment: Antimicrobial activity against Saccharomyces cerevisiae YAT2296 mutant at 50 ug after 24 hrs; assay type: functional; conditions: read-out: IZ
Saccharomyces cerevisiae [5] = experiment: Antimicrobial activity against Saccharomyces cerevisiae cdc5 mutant at 100 ug after 24 hrs; assay type: functional; conditions: read-out: IZ
Saccharomyces cerevisiae [6] = experiment: Antimicrobial activity against Saccharomyces cerevisiae act1-1 mutant at 100 ug after 24 hrs; assay type: functional; conditions: read-out: IZ
Saccharomyces cerevisiae [7] = experiment: Antimicrobial activity against Saccharomyces cerevisiae YAT2296 mutant at 100 ug after 24 hrs; assay type: functional; conditions: read-out: IZ
Penicillium chrysogenum = experiment: Antimicrobial activity against Penicillium chrysogenum after 24 hrs; assay type: functional, organism-based
Candida albicans = experiment: Antimicrobial activity against Candida albicans at 100 ug after 24 hrs; assay type: functional; conditions: read-out: IZ
Umbelopsis ramanniana = experiment: Antimicrobial activity against Mortierella ramanniana after 24 hrs; assay type: functional, organism-based
Escherichia coli [8] = experiment: Antimicrobial activity against Escherichia coli at 50 ug after 24 hrs; assay type: functional; conditions: read-out: IZ
Escherichia coli [9] = experiment: Antimicrobial activity against Escherichia coli at 100 ug after 24 hrs; assay type: functional; conditions: read-out: IZ
Pseudomonas aeruginosa [10] = experiment: Antimicrobial activity against Pseudomonas aeruginosa at 50 ug after 24 hrs; assay type: functional; conditions: read-out: IZ
Pseudomonas aeruginosa [11] = experiment: Antimicrobial activity against Pseudomonas aeruginosa at 100 ug after 24 hrs; assay type: functional; conditions: read-out: IZ
Bacillus subtilis = experiment: Antimicrobial activity against Bacillus subtilis at 100 ug after 24 hrs; assay type: functional; conditions: read-out: IZ
Staphylococcus aureus [12] = experiment: Antimicrobial activity against Staphylococcus aureus at 50 ug after 24 hrs; assay type: functional; conditions: read-out: IZ
Staphylococcus aureus [13] = experiment: Antimicrobial activity against Staphylococcus aureus at 100 ug after 24 hrs; assay type: functional; conditions: read-out: IZ

Compound `CC/C=C/C#C/C=C/C#CCCCC(=O)O` has a zone of inhibition at 100 µg/disc (Saccharomyces cerevisiae [1]) of 6.5 mm, a zone of inhibition at 50 µg/disc (Saccharomyces cerevisiae [2]) of 7 mm and a zone of inhibition at 50 µg/disc (Saccharomyces cerevisiae [3]) of 9 mm. For the same compound, the zone of inhibition at 50 µg/disc (Saccharomyces cerevisiae [4]) was 6.5 mm, the zone of inhibition at 100 µg/disc (Saccharomyces cerevisiae [5]) was 7.5 mm and the zone of inhibition at 100 µg/disc (Saccharomyces cerevisiae [6]) was 10 mm. The zone of inhibition at 100 µg/disc (Saccharomyces cerevisiae [7]) was 7 mm, the Activity (Penicillium chrysogenum) was “inactive” and the zone of inhibition at 100 µg/disc (Candida albicans) was 8.5 mm. The Activity (Umbelopsis ramanniana) was “inactive”, the zone of inhibition at 50 µg/disc (Escherichia coli [8]) was 8.5 mm and the zone of inhibition at 100 µg/disc (Escherichia coli [9]) was 12 mm. The zone of inhibition at 50 µg/disc (Pseudomonas aeruginosa [10]) was 8.5 mm, the zone of inhibition at 100 µg/disc (Pseudomonas aeruginosa [11]) was 13 mm and the zone of inhibition at 100 µg/disc (Bacillus subtilis) was 11 mm. The zone of inhibition at 50 µg/disc (Staphylococcus aureus [12]) was 9.5 mm and the zone of inhibition at 100 µg/disc (Staphylococcus aureus [13]) was 13.5 mm.

Source: ChEMBL document CHEMBL1142614, “An antimicrobial C(14) acetylenic acid from a marine sponge Oceanapia species” (2000)
